Experimental data published in US20220081412A1, “QUINOLINYL-PYRAZINE-CARBOXAMIDE COMPOUNDS AND USES THEREOF” (The Regents of the University of Michigan, priority 2018, published 2022).

Tested on: NCI60 cell lines
Assay: NCI60 cell line panel
Format: cell-based, human
Description: The Developmental Therapeutics Program (DTP) of NCI has evaluated more than 100,000 pure compounds and more than 34,000 crude extracts against the panel of human tumor cell lines. The resultant data are analyzed using a program called COMPARE, that rank the entire database of tested compounds in the order of the similarity of the responses. […] Thus, the NCI60 databases is highly useful to the cancer research community. Further experiments were conducted that tested some of the active compounds in a panel of NCI60 cell line to relate our compounds with some known inhibitors to have an idea of possible mechanism of action.
In order to understand the selectivity of these compounds in different cancer types, some of them were tested against a panel of 60 cell lines (Table XXXIX).

## O=C(Nc1cc(F)cc2cccnc12)c1cnc(N2CCNCC2)cn1 [J44, N-(6-fluoroquinolin-8-yl)-5-(piperazin-1-yl)pyrazine-2-carboxamide]
Breast Cancer, BT-549
  GIPRCNT: % Growth inhibition: 82.22%
Breast Cancer, HS 578T
  GIPRCNT: % Growth inhibition: 71.77%
Breast Cancer, MCF7
  GIPRCNT: % Growth inhibition: 75.22%
Breast Cancer, MDA-MB-231/ATCC
  GIPRCNT: % Growth inhibition: 10.16%
Breast Cancer, MDA-MB-468
  GIPRCNT: % Growth inhibition: −5.124%
Breast Cancer, T-47D
  GIPRCNT: % Growth inhibition: 18.05%
CNS Cancer, SF-268
  GIPRCNT: % Growth inhibition: 77.45%
CNS Cancer, SF-295
  GIPRCNT: % Growth inhibition: 89.3%
CNS Cancer, SF-539
  GIPRCNT: % Growth inhibition: 85.5%
CNS Cancer, SNB-19
  GIPRCNT: % Growth inhibition: 87.74%
CNS Cancer, SNB-75
  GIPRCNT: % Growth inhibition: 82.71%
CNS Cancer, U251
  GIPRCNT: % Growth inhibition: 63.6%
Colon Cancer, COLO 205
  GIPRCNT: % Growth inhibition: 13.9%
Colon Cancer, HCC-2998
  GIPRCNT: % Growth inhibition: 85.58%
Colon Cancer, HCT-15
  GIPRCNT: % Growth inhibition: 40.52%
Colon Cancer, HCT-116
  GIPRCNT: % Growth inhibition: 11%
Colon Cancer, HT29
  GIPRCNT: % Growth inhibition: 36.78%
Colon Cancer, KM12
  GIPRCNT: % Growth inhibition: 81.24%
Colon Cancer, SW-620
  GIPRCNT: % Growth inhibition: 40.94%
Leukemia, CCRF-CEM
  GIPRCNT: % Growth inhibition: 26.31%
Leukemia, HL-60(TB)
  GIPRCNT: % Growth inhibition: 77.07%
Leukemia, K-562
  GIPRCNT: % Growth inhibition: 19.84%
Leukemia, MOLT-4
  GIPRCNT: % Growth inhibition: 24.48%
Leukemia, RPMI-8226
  GIPRCNT: % Growth inhibition: 93.13%
Leukemia, SR
  GIPRCNT: % Growth inhibition: 29.46%
Melanoma, LOX IMVI
  GIPRCNT: % Growth inhibition: 65.76%
Melanoma, M14
  GIPRCNT: % Growth inhibition: 86.06%
Melanoma, MALME-3M
  GIPRCNT: % Growth inhibition: 59.5595%
Melanoma, MDA-MB-435
  GIPRCNT: % Growth inhibition: 77.28%
Melanoma, SK-MEL-2
  GIPRCNT: % Growth inhibition: 104.1313%
Melanoma, SK-MEL-5
  GIPRCNT: % Growth inhibition: 97.38%
Melanoma, UACC-62
  GIPRCNT: % Growth inhibition: 88.004%
Melanoma, UACC-257
  GIPRCNT: % Growth inhibition: 91.12%
Non-Small Cell Lung Cancer, A549/ATCC
  GIPRCNT: % Growth inhibition: 88.1%
Non-Small Cell Lung Cancer, EKVX
  GIPRCNT: % Growth inhibition: 82.71%
Non-Small Cell Lung Cancer, HOP-62
  GIPRCNT: % Growth inhibition: 85.24%
Non-Small Cell Lung Cancer, HOP-92
  GIPRCNT: % Growth inhibition: 49.09%
Non-Small Cell Lung Cancer, NCI-H23
  GIPRCNT: % Growth inhibition: 83.43%
Non-Small Cell Lung Cancer, NCI-H226
  GIPRCNT: % Growth inhibition: 100.3613%
Non-Small Cell Lung Cancer, NCI-H322M
  GIPRCNT: % Growth inhibition: 69.29%
Non-Small Cell Lung Cancer, NCI-H460
  GIPRCNT: % Growth inhibition: 80.62%
Non-Small Cell Lung Cancer, NCI-H522
  GIPRCNT: % Growth inhibition: 54.48%
Ovarian Cancer, IGROV1
  GIPRCNT: % Growth inhibition: 100.6006%
Ovarian Cancer, NCI/ADR-RES
  GIPRCNT: % Growth inhibition: 72.41%
Ovarian Cancer, OVCAR-3
  GIPRCNT: % Growth inhibition: 43.52%
Ovarian Cancer, OVCAR-4
  GIPRCNT: % Growth inhibition: 6.04%
Ovarian Cancer, OVCAR-5
  GIPRCNT: % Growth inhibition: 11.16%
Ovarian Cancer, OVCAR-8
  GIPRCNT: % Growth inhibition: 83.3637%
Ovarian Cancer, SK-OV-3
  GIPRCNT: % Growth inhibition: 87.6273%
Prostate Cancer, DU-145
  GIPRCNT: % Growth inhibition: 63.01%
Prostate Cancer, PC-3
  GIPRCNT: % Growth inhibition: 29.0295%
Renal Cancer, 786-0
  GIPRCNT: % Growth inhibition: 100.1067%
Renal Cancer, A498
  GIPRCNT: % Growth inhibition: 89.1%
Renal Cancer, ACHN
  GIPRCNT: % Growth inhibition: 88.67%
Renal Cancer, CAKI-1
  GIPRCNT: % Growth inhibition: 28.3672%
Renal Cancer, RXF 393
  GIPRCNT: % Growth inhibition: 52.45%
Renal Cancer, SN12C
  GIPRCNT: % Growth inhibition: 54.07%
Renal Cancer, TK-10
  GIPRCNT: % Growth inhibition: 74.98%
Renal Cancer, UO-31
  GIPRCNT: % Growth inhibition: 66.57%
